Laboratory results taken from PubChem BioAssay (NCI).
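Grown in 96-well plates, cells were treated for 48 hours with each compound at five concentrations. Insufficient inhibition: endpoint recorded as highest concentration tested. The concentration for 50% growth inhibition is given as GI50. TGI marks complete inhibition of growth.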

Experiments:
Assay in all cases: NCI anticancer screen, dose series, 48 h
[1] = system: 786-0 renal
[2] = system: A498 renal
[3] = system: A549 NSCLC
[4] = system: ACHN renal
[5] = system: BT-549 breast
[6] = system: CAKI-1 renal
[7] = system: CCRF-CEM leukemia
[8] = system: COLO 205 colon
[9] = system: DU-145 prostate
[10] = system: EKVX NSCLC
[11] = system: HCC-2998 colon
[12] = system: HCT-116 colon
[13] = system: HCT-15 colon
[14] = system: HL-60(TB) leukemia
[15] = system: HOP-62 NSCLC
[16] = system: HOP-92 NSCLC
[17] = system: HS 578T breast
[18] = system: HT29 colon
[19] = system: IGROV1 ovarian
[20] = system: K-562 leukemia
[21] = system: KM12 colon
[22] = system: LOX IMVI melanoma
[23] = system: M14 melanoma
[24] = system: MALME-3M melanoma
[25] = system: MCF7 breast
[26] = system: MDA-MB-231 breast
[27] = system: MDA-MB-435
[28] = system: MOLT-4 leukemia
[29] = system: NCI-H226 lung
[30] = system: NCI-H23 lung
[31] = system: NCI-H460 lung
[32] = system: NCI-H522 lung
[33] = system: NCI/ADR-RES ovarian
[34] = system: OVCAR-3 ovarian
[35] = system: OVCAR-4 ovarian
[36] = system: OVCAR-5 ovarian
[37] = system: PC-3 prostate
[38] = system: RPMI-8226 leukemia
[39] = system: RXF 393 renal
[40] = system: SF-268 CNS
[41] = system: SF-295 CNS
[42] = system: SF-539 CNS
[43] = system: SK-MEL-2 melanoma
[44] = system: SK-MEL-28 melanoma
[45] = system: SK-MEL-5 melanoma
[46] = system: SK-OV-3 ovarian
[47] = system: SN12C renal
[48] = system: SNB-19 CNS
[49] = system: SNB-75 CNS
[50] = system: SR leukemia
[51] = system: SW-620 colon
[52] = system: T-47D breast
[53] = system: TK-10 renal
[54] = system: U251 CNS
[55] = system: UACC-257 melanoma
[56] = system: UACC-62 melanoma
[57] = system: UO-31 renal

Question: Which GI50 [1] does the source give for `CCCCCSC1C2C(=O)C(Br)=CC13CCNc1c(O)c4c5c(c13)=[N+]2CCC=5C=N4` (centres undefined) here?
Answer: 2700 nM

Question: What about the TGI [1] of the same molecule?
Answer: 5120 nM

Question: What about the GI50 [2] of the same molecule?
Answer: 3010 nM

Question: What about the TGI [2] of the same molecule?
Answer: 6610 nM

Question: What about the GI50 [3] of the same molecule?
Answer: 2880 nM

Question: And the TGI [3]?
Answer: 5800 nM

Question: And the GI50 [4]?
Answer: 1750 nM

Question: And the TGI [4]?
Answer: 3970 nM

Question: What about the GI50 [5] of the same molecule?
Answer: 2610 nM

Question: And the TGI [5]?
Answer: 4960 nM

Question: And the GI50 [6]?
Answer: 2470 nM

Question: And the TGI [6]?
Answer: 4790 nM

Question: What about the GI50 [7] of the same molecule?
Answer: 1010 nM

Question: And the TGI [7]?
Answer: 11600 nM

Question: What about the GI50 [8] of the same molecule?
Answer: 303 nM

Question: And the TGI [8]?
Answer: 613 nM

Question: And the GI50 [9]?
Answer: 1740 nM

Question: And the TGI [9]?
Answer: 3720 nM

Question: And the GI50 [10]?
Answer: 1820 nM

Question: And the TGI [10]?
Answer: 5070 nM

Question: What about the GI50 [11] of the same molecule?
Answer: 1250 nM

Question: What about the TGI [11] of the same molecule?
Answer: 3880 nM

Question: What about the GI50 [12] of the same molecule?
Answer: 419 nM

Question: What about the TGI [12] of the same molecule?
Answer: 1280 nM

Question: And the GI50 [13]?
Answer: 2040 nM

Question: And the TGI [13]?
Answer: 6090 nM

Question: And the GI50 [14]?
Answer: 671 nM

Question: What about the TGI [14] of the same molecule?
Answer: 2400 nM

Question: What about the GI50 [15] of the same molecule?
Answer: 3030 nM

Question: What about the TGI [15] of the same molecule?
Answer: 5800 nM

Question: And the GI50 [16]?
Answer: 3020 nM

Question: What about the TGI [16] of the same molecule?
Answer: 6200 nM

Question: And the GI50 [17]?
Answer: 5470 nM

Question: And the TGI [17]?
Answer: 16700 nM

Question: And the GI50 [18]?
Answer: 490 nM

Question: What about the TGI [18] of the same molecule?
Answer: 1540 nM

Question: What about the GI50 [19] of the same molecule?
Answer: 913 nM

Question: What about the TGI [19] of the same molecule?
Answer: 3610 nM

Question: What about the GI50 [20] of the same molecule?
Answer: 2620 nM

Question: And the TGI [20]?
Answer: 12200 nM

Question: And the GI50 [21]?
Answer: 2530 nM

Question: And the TGI [21]?
Answer: 6260 nM

Question: And the GI50 [22]?
Answer: 842 nM

Question: And the TGI [22]?
Answer: 3350 nM

Question: What about the GI50 [23] of the same molecule?
Answer: 1510 nM

Question: What about the TGI [23] of the same molecule?
Answer: 3680 nM

Question: And the GI50 [24]?
Answer: 332 nM

Question: What about the TGI [24] of the same molecule?
Answer: 1370 nM

Question: And the GI50 [25]?
Answer: 341 nM

Question: What about the TGI [25] of the same molecule?
Answer: 883 nM

Question: What about the GI50 [26] of the same molecule?
Answer: 417 nM

Question: What about the TGI [26] of the same molecule?
Answer: 1500 nM

Question: And the GI50 [27]?
Answer: 304 nM

Question: What about the TGI [27] of the same molecule?
Answer: 571 nM

Question: And the GI50 [28]?
Answer: 762 nM

Question: What about the TGI [28] of the same molecule?
Answer: 5730 nM

Question: And the GI50 [29]?
Answer: 3150 nM

Question: And the TGI [29]?
Answer: 6320 nM

Question: What about the GI50 [30] of the same molecule?
Answer: 1330 nM

Question: And the TGI [30]?
Answer: 6210 nM

Question: What about the GI50 [31] of the same molecule?
Answer: 1130 nM

Question: And the TGI [31]?
Answer: 4320 nM

Question: What about the GI50 [32] of the same molecule?
Answer: 452 nM

Question: And the TGI [32]?
Answer: 1260 nM

Question: What about the GI50 [33] of the same molecule?
Answer: 4420 nM

Question: And the TGI [33]?
Answer: 16700 nM

Question: And the GI50 [34]?
Answer: 405 nM

Question: What about the TGI [34] of the same molecule?
Answer: 1440 nM

Question: And the GI50 [35]?
Answer: 256 nM

Question: What about the TGI [35] of the same molecule?
Answer: 609 nM

Question: What about the GI50 [36] of the same molecule?
Answer: 3070 nM

Question: What about the TGI [36] of the same molecule?
Answer: 7080 nM

Question: What about the GI50 [37] of the same molecule?
Answer: 2000 nM

Question: And the TGI [37]?
Answer: 7450 nM

Question: And the GI50 [38]?
Answer: 3650 nM

Question: What about the TGI [38] of the same molecule?
Answer: 11000 nM

Question: And the GI50 [39]?
Answer: 1870 nM

Question: And the TGI [39]?
Answer: 4420 nM

Question: And the GI50 [40]?
Answer: 2100 nM

Question: And the TGI [40]?
Answer: 5340 nM

Question: What about the GI50 [41] of the same molecule?
Answer: 3890 nM

Question: What about the TGI [41] of the same molecule?
Answer: 9610 nM

Question: And the GI50 [42]?
Answer: 2780 nM

Question: And the TGI [42]?
Answer: 5080 nM

Question: What about the GI50 [43] of the same molecule?
Answer: 2100 nM

Question: And the TGI [43]?
Answer: 5600 nM

Question: And the GI50 [44]?
Answer: 2120 nM

Question: And the TGI [44]?
Answer: 4550 nM

Question: And the GI50 [45]?
Answer: 1850 nM

Question: And the TGI [45]?
Answer: 3960 nM

Question: And the GI50 [46]?
Answer: 3220 nM

Question: What about the TGI [46] of the same molecule?
Answer: 6430 nM

Question: And the GI50 [47]?
Answer: 414 nM

Question: And the TGI [47]?
Answer: 1120 nM

Question: What about the GI50 [48] of the same molecule?
Answer: 2690 nM

Question: What about the TGI [48] of the same molecule?
Answer: 4970 nM

Question: What about the GI50 [49] of the same molecule?
Answer: 2350 nM

Question: What about the TGI [49] of the same molecule?
Answer: 4560 nM

Question: And the GI50 [50]?
Answer: 1350 nM

Question: What about the TGI [50] of the same molecule?
Answer: 14700 nM

Question: What about the GI50 [51] of the same molecule?
Answer: 545 nM

Question: And the TGI [51]?
Answer: 1550 nM

Question: What about the GI50 [52] of the same molecule?
Answer: 1740 nM

Question: And the TGI [52]?
Answer: 6030 nM

Question: And the GI50 [53]?
Answer: 2980 nM

Question: What about the TGI [53] of the same molecule?
Answer: 5340 nM

Question: And the GI50 [54]?
Answer: 2560 nM

Question: What about the TGI [54] of the same molecule?
Answer: 5670 nM

Question: What about the GI50 [55] of the same molecule?
Answer: 385 nM

Question: What about the TGI [55] of the same molecule?
Answer: 1200 nM

Question: And the GI50 [56]?
Answer: 952 nM

Question: And the TGI [56]?
Answer: 3750 nM

Question: What about the GI50 [57] of the same molecule?
Answer: 2110 nM

Question: What about the TGI [57] of the same molecule?
Answer: 4420 nM
